This note sets out measurements from patent publication US20240101573A1, “MACROCYCLIC K-RAS G12C INHIBITOR, PREPARATION METHOD THEREFOR AND USE THEREOF” (Abbisko Therapeutics Co., Ltd., priority 2020, published 2024).

One test concerns H358. Briefly: Anti-proliferation 2D CTG test (H358). The settings on record: H358 cells, 1500 cells/well, 5 days incubation with compound, CTG readout. The class given is cell-based. How it is done: (§1) When the cell confluency was 80%, the cells were isolated with 0.25% trypsin. The isolated cells were resuspended in 5 mL of fresh cell culture medium and centrifuged to collect the cells. The number of cells were counted at the same time. Then, the cells were suspended in a culture medium at a moderate concentration. The cells were placed into a 96-well plate with 1500 cells/well for H358 and 500 cells/well for MIAPACA-2. The 96-well plate was placed in an incubator at 37° C. and incubated overnight.
(§2) 2) Day 1: processing of compound
(§3) A 2 mM stock solution was serially diluted at 10 points at a ratio of 1:3. 5× culture medium containing the compound was transferred to the corresponding wells of 96 wells. The final peak concentration of the compound was […], and the final concentration of DMSO was 0.5%. The 96-well plate was placed in the incubator at 37° C. and incubated for 5 days.
(§4) 3) Baseline reading. 4) Day 6: reading of signals
(§5) A detection reagent (CTG) was added at 50 μL/well, and the signals were read in an Envision instrument.
(§6) The percentage of inhibition ([…]) at each compound concentration was calculated based on the signals from the HPE and ZPE control wells contained in each assay plate and the fluorescence signals from individual compound wells. The inhibition rate in the ZPE control wells containing the enzyme and substrate was 0%, and the inhibition rate in the HPE control wells only containing the substrate was […]. By testing the compound in terms of numeric concentration and inhibition percentage, the compound concentration required for […] inhibition (IC50) was determined using a four-parameter logarithmic dose-response equation. The endpoint value (IC50) of the reference compound was evaluated in each experiment as a quality control measure. If the endpoint value was within three times the expected value, the experiment was considered acceptable.

In the next test the test system is MIA PaCa-2. The experiment in a line: Anti-proliferation 2D CTG test (MIA PaCa-2). In kind it is cell-based. The settings on record: MIAPACA-2 cells, 500 cells/well, 5 days incubation with compound, CTG readout. The procedure: as §1, §2, §3, §4, §5, §6
The mark [1] stands for this setting: Homo sapiens, MIA PaCa-2, 120 h.

Turning to `C=CC(=O)N1CCN(c2nc(=O)n3c4nc(c(F)cc24)-c2c(ccc(Cl)c2F)OCC(O)C(O)c2ccnc(C(C)C)c2-3)[C@@H](C)C1` (stereo partly drawn) [Example 66, (R)-2^4-((S)-4-acryloyl-2-methylpiperazin-1-yl)-3^5-chloro-2^6,3^6-difluoro-6,7-dihydroxy-1^2-isopropyl-2^1,2^2-dihydro-4-oxa-2(1,7)-pyrido[2,3-d]pyrimidina-1(3,4)-pyridina-3(1,2)-benzocycloheptane-2^2-one], the half-maximal inhibitory concentration (IC50) in the test on H358 came to 5 nM; in the test with MIA PaCa-2 it was 3 nM.

On to `C=CC(=O)N1CCN(c2nc(=O)n3c4nc(c(F)cc24)-c2c(F)cccc2OCC(OC(=O)C2CC2)C(OC(=O)C2CC2)c2ccnc(C(C)C)c2-3)[C@@H](C)C1` (stereo partly drawn) [Example 14, 2^4-((S)-4-acryloyl-2-methylpiperazin-1-yl)-2^6,3^6-difluoro-1^2-isopropyl-2^2-oxo-2^1,2^2-dihydro-4-oxa-2(1,7)-pyrido[2,3-d]pyrimidina-1(3,4)-pyridina-3(1,2)-benzocycloheptane-6,7-diyl dicyclopropanecarboxylate], for which the concentration for half-maximal inhibition (IC50) in the test on H358 (Homo sapiens, NCI-H358, 120 h) turned out to be 6 nM; in the test on MIA PaCa-2 (setting [1]) it was 9 nM.

With `C=CC(=O)N1C[C@H](C)N(c2nc(=O)n3c4nc(c(F)cc24)-c2c(F)cccc2OCC(O)C(OCC)c2ccnc(C(C)C)c2-3)C[C@H]1C` (stereo partly drawn) [Example 57, (R)-2^4-((2S,5R)-4-acryloyl-2,5-dimethylpiperazin-1-yl)-7-ethoxy-2^6,3^6-difluoro-6-hydroxy-1^2-isopropyl-2^1,2^2-dihydro-4-oxa-2(1,7)-pyrido[2,3-d]pyrimidina-1(3,4)-pyridina-3(1,2)-benzocycloheptane-2^2-one], the 50% inhibitory concentration (IC50) in the test with H358 worked out at 35 nM; in the test on MIA PaCa-2, 18 nM.

Take “2^4-((S)-4-acryloyl-2-methylpiperazin-1-yl)-2^6,3^6-difluoro-7-hydroxy-1^2-isopropyl-2^1,2^2-dihydro-4-oxa-2(1,7)-pyrido[2,3-d]pyrimidina-1(3,4)-pyridina-3(1,2)-benzocycloheptane-2^2-one [Example 5]”: the half-inhibitory concentration (IC50) with H358 was determined as 19 nM; in the test on MIA PaCa-2 it was 20 nM.

As for `C=CC(=O)N1CCN(c2nc(=O)n3c4nc(c(F)cc24)-c2c(F)cccc2OCC(OCOC(=O)OC)C(OCOC(=O)OC)c2ccnc(C(C)C)c2-3)[C@@H](C)C1` (stereo partly drawn) [Example 17, ((2^4-((S)-4-acryloyl-2-methylpiperazin-1-yl)-2^6,3^6-difluoro-1^2-isopropyl-2^2-oxo-2^1,2^2-dihydro-4-oxa-2(1,7)-pyrido[2,3-d]pyrimidina-1(3,4)-pyridina-3(1,2)-benzocycloheptane-6,7-diyl)di(oxo))di(methylene) dimethyldi(carbonate)], the half-maximal inhibitory concentration (IC50) in the test on H358 (Homo sapiens, NCI-H358, 120 h) was found to be 9 nM; in the test with MIA PaCa-2 (setting [1]), 9 nM.

Consider `C=CC(=O)N1CCN(c2nc(=O)n3c4nc(c(F)cc24)-c2c(F)cccc2OCC(O)C(OC(C)=O)c2ccnc(C(C)C)c2-3)[C@@H](C)C1` (stereo partly drawn) [Example 7, 2^4-((S)-4-acryloyl-2-methylpiperazin-1-yl)-2^6,3^6-difluoro-6-hydroxy-1^2-isopropyl-2^2-oxo-2^1,2^2-dihydro-4-oxa-2(1,7)-pyrido[2,3-d]pyrimidina-1(3,4)-pyridina-3(1,2)-benzocycloheptane-7-yl acetate], for which the concentration for half-maximal inhibition (IC50) in the test on H358 (Homo sapiens, NCI-H358, 120 h) is 15 nM; in the test on MIA PaCa-2 (setting [1]), 10 nM.

In the case of `C=CC(=O)N1CCN(c2nc(=O)n3c4nc(c(F)cc24)-c2c(F)cccc2OCCC(OC(C)=O)c2ccnc(C(C)C)c2-3)[C@@H](C)C1` (stereo partly drawn) [Example 16, 2^4-((S)-4-acryloyl-2-methylpiperazin-1-yl)-2^6,3^6-difluoro-1^2-isopropyl-2^2-oxo-2^1,2^2-dihydro-4-oxa-2(1,7)-pyrido[2,3-d]pyrimidina-1(3,4)-pyridina-3(1,2)-benzocycloheptane-7-yl acetate], the IC50 in the test on H358 (Homo sapiens, NCI-H358, 120 h) worked out at 29 nM; in the test with MIA PaCa-2 (setting [1]) it was 20 nM.

As to `C=CC(=O)N1CCN(c2nc(=O)n3c4nc(c(F)cc24)-c2c(F)cccc2OCC(O)C(O)c2ccnc(C(C)C)c2-3)[C@@H](C)C1` (stereo partly drawn) [Example 1, 2^4-((S)-4-acryloyl-2-methylpiperazin-1-yl)-2^6,3^6-difluoro-6,7-dihydroxy-1^2-isopropyl-2^1,2^2-dihydro-4-oxa-2(1,7)-pyrido[2,3-d]pyrimidina-1(3,4)-pyridina-3(1,2)-benzocycloheptane-2^2-one], the figures for the concentration for half-maximal inhibition (IC50) with H358 and with MIA PaCa-2 were 13 nM and 10 nM, respectively.

For `C=CC(=O)N1CCN(c2nc(=O)n3c4nc(c(F)cc24)-c2c(F)cccc2OCC(OCC2CC2)C(O)c2ccnc(C(C)C)c2-3)[C@@H](C)C1` (stereo partly drawn) [Example 49, (R)-2^4-((S)-4-acryloyl-2-methylpiperazin-1-yl)-6-(cyclopropylmethoxy)-2^6,3^6-difluoro-7-hydroxy-1^2-isopropyl-2^1,2^2-dihydro-4-oxa-2(1,7)-pyrido[2,3-d]pyrimidina-1(3,4)-pyridina-3(1,2)-benzocycloheptane-2^2-one], the half-maximal inhibitory concentration (IC50) with H358 came to 7 nM; in the test on MIA PaCa-2, 6 nM.

Regarding `C=CC(=O)N1CCN(c2nc(=O)n3c4nc(c(F)cc24)-c2c(F)cccc2OCC(OC(C)C)C(O)c2ccnc(C(C)C)c2-3)[C@@H](C)C1` (stereo partly drawn) [Example 56, (S)-2^4-((S)-4-acryloyl-2-methylpiperazin-1-yl)-6-isopropoxy-2^6,3^6-difluoro-7-hydroxy-1^2-isopropyl-2^1,2^2-dihydro-4-oxa-2(1,7)-pyrido[2,3-d]pyrimidina-1(3,4)-pyridina-3(1,2)-benzocycloheptane-2^2-one], the IC50 in the test with H358 worked out at 221 nM; in the test on MIA PaCa-2, 218 nM.

For `C=CC(=O)N1CCN(c2nc(=O)n3c4nc(c(F)cc24)-c2c(F)cccc2OCC(O)C(OCCF)c2ccnc(C(C)C)c2-3)[C@@H](C)C1` (stereo partly drawn) [Example 24, 2^4-((S)-4-acryloyl-2-methylpiperazin-1-yl)-2^6,3^6-difluoro-7-(2-fluoroethoxy)-6-hydroxy-1^2-isopropyl-2^1,2^2-dihydro-4-oxa-2(1,7)-pyrido[2,3-d]pyrimidina-1(3,4)-pyridina-3(1,2)-benzocycloheptane-2^2-one], the IC50 is 17 nM in the test with H358 (Homo sapiens, NCI-H358, 120 h) and 8 nM with MIA PaCa-2 (setting [1]).

`C=CC(=O)N1C[C@H](C)N(c2nc(=O)n3c4nc(c(F)cc24)-c2c(F)cccc2OCC(O)C(O)c2ccnc(C(C)C)c2-3)C[C@H]1C` (stereo partly drawn) [Example 3, (S)-2^4-((2S,5R)-4-acryloyl-2,5-dimethylpiperazin-1-yl)-2^6,3^6-difluoro-6,7-dihydroxy-1^2-isopropyl-2^1,2^2-dihydro-4-oxa-2(1,7)-pyrido[2,3-d]pyrimidina-1(3,4)-pyridina-3(1,2)-benzocycloheptane-2^2-one]: the IC50 with H358 turned out to be 1250 nM; in the test on MIA PaCa-2, 400 nM.

For the compound `C=CC(=O)N1C[C@H](C)N(c2nc(=O)n3c4nc(c(F)cc24)-c2c(F)cccc2OCC(O)C(OCC)c2ccnc(C(C)C)c2-3)C[C@H]1C` (stereo partly drawn) [Example 58, (S)-2^4-((2S,5R)-4-acryloyl-2,5-dimethylpiperazin-1-yl)-7-ethoxy-2^6,3^6-difluoro-6-hydroxy-1^2-isopropyl-2^1,2^2-dihydro-4-oxa-2(1,7)-pyrido[2,3-d]pyrimidina-1(3,4)-pyridina-3(1,2)-benzocycloheptane-2^2-one], the concentration for half-maximal inhibition (IC50) with H358 stood at 461 nM; in the test on MIA PaCa-2, 314 nM.

`C=CC(=O)N1CCN(c2nc(=O)n3c4nc(c(F)cc24)-c2c(F)cccc2OCC(OCCF)C(OCCF)c2ccnc(C(C)C)c2-3)[C@@H](C)C1` (stereo partly drawn) [Example 61, 2^4-((S)-4-acryloyl-2-methylpiperazin-1-yl)-2^6,3^6-difluoro-6,7-di(2-fluoroethoxy)-1^2-isopropyl-2^1,2^2-dihydro-4-oxa-2(1,7)-pyrido[2,3-d]pyrimidina-1(3,4)-pyridina-3(1,2)-benzocycloheptane-2^2-one]: the half-inhibitory concentration (IC50) in the test with H358 (Homo sapiens, NCI-H358, 120 h) amounted to 38 nM; in the test on MIA PaCa-2 (setting [1]), 16 nM.

On to `C=CC(=O)N1CCN(c2nc(=O)n3c4nc(c(F)cc24)-c2c(F)cccc2OCC(OC(C)=O)C(OC(C)=O)c2ccnc(C(C)C)c2-3)[C@@H](C)C1` (stereo partly drawn) [Example 18, 2^4-((S)-4-acryloyl-2-methylpiperazin-1-yl)-2^6,3^6-difluoro-1^2-isopropyl-2^2-oxo-2^1,2^2-dihydro-4-oxa-2(1,7)-pyrido[2,3-d]pyrimidina-1(3,4)-pyridina-3(1,2)-benzocycloheptane-6,7-diyl diacetate], for which the half-inhibitory concentration (IC50) is 14 nM in the test with H358 (Homo sapiens, NCI-H358, 120 h) and 6 nM in the test on MIA PaCa-2 (setting [1]).

For `C=CC(=O)N1C[C@H](C)N(c2nc(=O)n3c4nc(c(F)cc24)-c2c(F)cccc2OCC(O)C(OCC)c2ccnc(C(C)C)c2-3)C[C@H]1C` (stereo partly drawn) [Example 35, 2^4-((2S,5R)-4-acryloyl-2,5-dimethylpiperazin-1-yl)-7-ethoxy-2^6,3^6-difluoro-6-hydroxy-1^2-isopropyl-2^1,2^2-dihydro-4-oxa-2(1,7)-pyrido[2,3-d]pyrimidina-1(3,4)-pyridina-3(1,2)-benzocycloheptane-2^2-one], the values for the IC50 in the test on H358 and in the test on MIA PaCa-2 were 11 nM and 4 nM, respectively.

As usually defined, the IC50 is the concentration that inhibits the measured activity by half.
